Literature values, collected in EP4674947A1, “YEAST MUTANT STRAIN WITH HIGH GLYCOLIPID PRODUCTIVITY” (KAO CORPORATION, priority 2024, dated 2025).

Details: decreased from 72.8 mN/m; sophorolipid produced by Starmerella bombicola

surface tension of water decreased to: 30 mN/m
Substance: Sophorolipid
